Patent US4010264A, “7-[3-Substituted isoxazol-5-yl]-acetamido-cephalosporanic acids and their anti-bacterial use” (Koninklijke Nederlandsche Gist-en Spiritusfabriek N.V., priority 1970, dated 1977)
≈ marks a conversion by molar mass, not a printed value. Where a name gives a salt, the structure may show the parent alone.

Assays:
[1] = test system: Staphylococcus aureus L160a (penicillinase-producing); experiment: MIC, agar serial dilution test; details: 24 h
[2] = test system: Streptococcus faecalis L 80; experiment: MIC, agar serial dilution test; type: cell-based; details: Enterococcus faecalis, L80; Streptococcus faecalis L 80; 24 hours at 37° C; read-out: MIC
Brucella melitensis A488 = experiment: microbe, parasite or virus in culture; type: cell-based; details: A488, 24 h
[3] = test system: Diplococcus pneumoniae L 54; experiment: MIC, agar serial dilution test; type: cell-based; details: Streptococcus pneumoniae, L54; Diplococcus pneumoniae L 54; 24 hours at 37° C; read-out: MIC
[4] = test system: Streptococcus haemolyticus A266; experiment: MIC, agar serial dilution test; type: cell-based; details: Streptococcus haemolyticus A266; 24 hours at 37° C; read-out: MIC
[5] = test system: Staphylococcus aureus A355 (penicillinase-producing); experiment: MIC, agar serial dilution test; details: 24 h
[6] = test system: Staphylococcus aureus A55; experiment: MIC, agar serial dilution test; type: cell-based; details: Staphylococcus aureus A55; 24 hours at 37° C; read-out: MIC
[7] = test system: Klebsiella pneumoniae A809; experiment: MIC, agar serial dilution test; type: cell-based; details: Klebsiella pneumoniae A809; 24 hours at 37° C; read-out: MIC
[8] = test system: Bacillus subtilis ATCC 6633; experiment: MIC, agar serial dilution test; type: cell-based; details: ATCC6633; Bacillus subtilis ATCC 6633; 24 hours at 37° C; read-out: MIC
[9] = test system: Staphylococcus aureus A321; experiment: MIC, agar serial dilution test; type: cell-based; details: Staphylococcus aureus A321; 24 hours at 37° C; read-out: MIC
[10] = test system: Pasteurella multocida A723; experiment: MIC, agar serial dilution test; type: cell-based; details: Pasteurella multocida A723; 24 hours at 37° C; read-out: MIC

| Compound | MIC [1] | MIC [2] | MIC (Brucella melitensis A488) | MIC [3] | MIC [4] | MIC [5] | MIC [6] | MIC [7] | MIC [8] | MIC [9] | MIC [10] |
| --- | --- | --- | --- | --- | --- | --- | --- | --- | --- | --- | --- |
| Cc1cc(CC(=O)NC2C(=O)N3[C@@H]2SC(C)(C)[C@@H]3C(=O)O)on1 (some centres unmarked) [Example XXI, 6-{[3-methyl-isoxazol-5-yl]acetamido}penicillanic acid] | 3 µg/mL (≈ 8.84 µM) | 3 µg/mL (≈ 8.84 µM) | 3 µg/mL (≈ 8.84 µM) | 1.5 µg/mL (≈ 4.42 µM) | 0.03 µg/mL (≈ 0.0884 µM) | 6 µg/mL (≈ 17.7 µM) | 0.5 µg/mL (≈ 1.47 µM) | > 100 µg/mL | 0.06 µg/mL (≈ 0.177 µM) | 0.25 µg/mL (≈ 0.737 µM) | 1.5 µg/mL (≈ 4.42 µM) |
| CCOc1ccc2ccccc2c1C(=O)N[C@@H]1C(=O)N2[C@@H]1SC(C)(C)[C@@H]2C(=O)O [Nafcilline, Nafcillin, reference compound] | 0.5 µg/mL (≈ 1.21 µM) | 10 µg/mL (≈ 24.1 µM) | 6 µg/mL (≈ 14.5 µM) | 0.06 µg/mL (≈ 0.145 µM) | 0.015 µg/mL (≈ 0.0362 µM) | 1 µg/mL (≈ 2.41 µM) | 0.12 µg/mL (≈ 0.29 µM) | 12.5 µg/mL (≈ 30.2 µM) | 0.5 µg/mL (≈ 1.21 µM) | 0.25 µg/mL (≈ 0.603 µM) | 12.5 µg/mL (≈ 30.2 µM) |
| Cc1cc(C)c(-c2cc(CC(=O)NC3C(=O)N4C3SC(C)(C)C4C(=O)O)on2)c(C)c1 (centres unmarked) [VI, Sodium salt of 6-{[3-(2,4,6-trimethyl)phenylisoxazol-5-yl]acetamido}penicillanic acid] | 0.5 µg/mL | 0.25 µg/mL | 3 µg/mL | 0.03 µg/mL | 0.012 µg/mL | 3 µg/mL | 0.06 µg/mL | 100 µg/mL | 0.03 µg/mL | 0.06 µg/mL | 12.5 µg/mL |
| CC1=C(C(=O)O)N2C(=O)C(NC(=O)Cc3onc(-c4c(Cl)cccc4Cl)c3C)C2SC1 (centres unmarked) [VIII, 7-{[3-(2,6-dichloro)phenyl-4-methyl-isoxazol-5-yl]acetamidodesacetoxycephalosporanic}acid] | 3 µg/mL (≈ 6.22 µM) | 100 µg/mL (≈ 207 µM) | 12.5 µg/mL (≈ 25.9 µM) | 1 µg/mL (≈ 2.07 µM) | 0.25 µg/mL (≈ 0.518 µM) | 3 µg/mL (≈ 6.22 µM) | 1.5 µg/mL (≈ 3.11 µM) | > 100 µg/mL | 0.25 µg/mL (≈ 0.518 µM) | 0.5 µg/mL (≈ 1.04 µM) | 100 µg/mL (≈ 207 µM) |
| CC(=O)OCC1=C(C(=O)O)N2C(=O)C(NC(=O)Cc3onc(-c4c(C)cc(C)cc4C)c3C)C2SC1 (centres unmarked) [XII, Sodium salt of 7-{[3-(2,4,6-trimethyl)phenyl-4-methyl-isoxazol-5-yl]acetamido}cephalosporanic acid] | 0.25 µg/mL | 6 µg/mL | 50 µg/mL | 0.06 µg/mL | 0.06 µg/mL | 0.25 µg/mL | 0.25 µg/mL | > 100 µg/mL | 0.06 µg/mL | 0.12 µg/mL | 100 µg/mL |
| CC1=C(C(=O)O)N2C(=O)C(NC(=O)Cc3onc(-c4c(C)cc(C)cc4C)c3C)C2SC1 (centres unmarked) [XIII, Sodium salt of 7-{[3-(2,4,6-trimethyl)phenyl-4-phenyl-methyl-isoxazol-5-yl]acetamido}desacetoxycephalosporanic acid] | 6 µg/mL | 100 µg/mL | > 100 µg/mL | 1.5 µg/mL | 0.6 µg/mL | 6 µg/mL | 3 µg/mL | > 100 µg/mL | 1 µg/mL | 1.5 µg/mL | > 100 µg/mL |
| CC1(C)SC2C(NC(=O)Cc3onc(-c4c(Cl)cccc4Cl)c3C(N)=O)C(=O)N2C1C(=O)O (centres unmarked) [XIV, 6-{[3-(2,6-dichloro)phenyl-4-carbamyl-isoxazol-5-yl]acetamido} penicillanic acid] | > 100 µg/mL | 50 µg/mL (≈ 97.4 µM) | 50 µg/mL (≈ 97.4 µM) | 6 µg/mL (≈ 11.7 µM) | 1.5 µg/mL (≈ 2.92 µM) | > 100 µg/mL | 12.5 µg/mL (≈ 24.3 µM) | > 100 µg/mL | 3 µg/mL (≈ 5.84 µM) | 12.5 µg/mL (≈ 24.3 µM) | 50 µg/mL (≈ 97.4 µM) |
| CC1(C)SC2C(NC(=O)Cc3cc(-c4ccc([N+](=O)[O-])cc4)no3)C(=O)N2C1C(=O)O (centres unmarked) [XIX, Sodium salt of 6-{[3-p-nitrophenyl-isoxazol-5-yl]acetamido}penicillanic acid] | 3 µg/mL | 1 µg/mL | 0.12 µg/mL | 0.03 µg/mL | 1.5 µg/mL | 1 µg/mL | 0.03 µg/mL | 100 µg/mL | < 0.015 µg/mL | 0.03 µg/mL | 1 µg/mL |
| CC(=O)OCC1=C(C(=O)O)N2C(=O)C(NC(=O)Cc3cc(C(C)(C)C)no3)C2SC1 (centres unmarked) [XXXIV, sodium 7-[3-(t-butyl)isoxazole-5-ylacetamido]-3-acetoxymethyl 3-cephem-4-carboxylate] | – | 12.5 µg/mL | – | 0.25 µg/mL | – | 1.5 µg/mL | – | 12.5 µg/mL | 0.75 µg/mL | 1.5 µg/mL | 3 µg/mL |
